From article PMC7848139, “Novel Hybrid CHC from β-carboline and N-Hydroxyacrylamide Overcomes Drug-Resistant Hepatocellular Carcinoma by Promoting Apoptosis, DNA Damage, and Cell Cycle Arrest” (Frontiers in Pharmacology, 2021) come the findings set out here.

The data set has as its system Bel7402/5-FU xenografts. The data set is described as follows: In vivo tumor growth inhibition, Bel7402/5-FU xenograft. More on the design: species or system BALB/c nude mice. The following applies: intraperitoneal daily, 21 days. As for the experimental part: All animal experimental protocols were approved by the Animal Research and Care Committee of Nantong University. Female BALB/c nude mice at 5∼6 week-old were subcutaneously implanted with 1×10^6 Bel7402/5-FU cells. […] The body mass and tumor size of nude mice were surveyed every three days during the 21 days study. Tumor size (mm^3) of nude mice was determined using the formula: tumor size = ½ (Length×Width^2). Finally, these tumor-bearing mice were sacrificed, and their tumors were removed and weighed at the end of the 21 days.
Data (means ± SD) were from tumor volumes or weight of each group of mice (n = 6 per group). *p < 0.01 vs. control group.

Regarding `CN(C)c1ccc(-c2nc(C(=O)NCc3ccc(/C=C/C(=O)NO)cc3)cc3c2[nH]c2ccccc23)cc1` [CHC, (E)-N-(4-(3-(hydroxyamino)-3-oxoprop-1-en-1-yl)benzyl)-1-(4-dimethylaminophenyl)-9H-pyrido [3,4-b]indole-3-carboxamide], the “body mass change vs vehicle group” value is reported as “no significant statistical difference” and the “xenograft hepatic tumor volume” value is given as “markedly diminished xenograft hepatic tumor volume”. Also, under “70 μmol/kg”, the “decrease of tumor mass compared to saline group” value is given as 65 % (w/w). The “tumor mass at end of treatment” value (70 μmol/kg, n = 6, saline group 1.47 ± 0.21 g) is on record as 0.51 ± 0.08 g.
